In US4698336A, “3-(pyrrolidinio)methyl-3-cephem derivatives” (Eisai Co., Ltd., priority 1985, dated 1987):
≈ marks a conversion by molar mass, not a printed value.

Columns and labels:
[1] = test system: Pseudomonas aeruginosa EP-01; assay: Antibacterial activity (MIC), Pseudomonas aeruginosa EP-01; format: cell-based; details: EP01
[2] = test system: Staphylococcus aureus E31106; assay: Antibacterial activity (MIC), Staphylococcus aureus E31106; format: cell-based; details: Staphylococcus aureus E31106, β Lactamase producing bacteria
[3] = test system: Serratia marcescens ES-75; assay: Antibacterial activity (MIC), Serratia marcescens ES-75; format: cell-based; details: ES75
[4] = test system: Citrobacter freundii EC-34; assay: Antibacterial activity (MIC), Citrobacter freundii EC-34; format: cell-based; details: EC34; Citrobacter freundii EC-34, β Lactamase producing bacteria
[5] = test system: Staphylococcus aureus 209-P; assay: Antibacterial activity (MIC), Staphylococcus aureus 209-P; format: cell-based
[6] = test system: Pseudomonas maltophilia E04004; assay: Antibacterial activity (MIC), Pseudomonas maltophilia E04004; format: cell-based; details: Stenotrophomonas maltophilia
Escherichia coli NIHJ = assay: Antibacterial activity (MIC), Escherichia coli NIHJ; format: cell-based
[7] = Acute toxicity, LD50 (mouse, intravenous injection); details: in vivo
Excerpt: Acute toxicity [LD50 (mouse, intravenous injection)] of the following compounds was more than 3 g/kg.

| SMILES | MIC [1] [µg/mL] | MIC [2] [µg/mL] | MIC [3] [µg/mL] | MIC [4] [µg/mL] | MIC [5] [µg/mL] | MIC [6] [µg/mL] | MIC (Escherichia coli NIHJ) [µg/mL] | LD50 [7] [mg/kg] |
| --- | --- | --- | --- | --- | --- | --- | --- | --- |
| CO/N=C(\C(=O)N[C@@H]1C(=O)N2C(C(=O)[O-])=C(C[N@@+]3(C)CCC[C@H]3CO)CS[C@H]12)c1nsc(N)n1 [Example 1-B, 7β-[2-(5-Amino-1,2,4-thiadiazol-3-yl)-(Z)-2-methoxyiminoacetamido]-3-[ (2S)-hydroxymethyl-(1R)-methylpyrrolidinio]methyl-3-cephem-4-carboxylate] | 1.56 (≈ 3.05 µM) | 12.5 (≈ 24.4 µM) | 0.1 (≈ 0.195 µM) | 0.1 (≈ 0.195 µM) | 1.56 (≈ 3.05 µM) | 6.25 (≈ 12.2 µM) | 0.1 (≈ 0.195 µM) |  |
| CO/N=C(\C(=O)N[C@@H]1C(=O)N2C(C(=O)[O-])=C(C[N@+]3(C)CCC[C@H]3C(N)=O)CS[C@H]12)c1nsc(N)n1 [Example 2, 7β-[2-(5-Amino-1,2,4-thiadiazol-3-yl)-(Z)-2-methoxyiminoacetamido]-3-[(2S)-carbamoyl-(1S)-methylpyrrolidinio]methyl-3-cephem-4-carboxylate] | 1.56 (≈ 2.97 µM) | 12.5 (≈ 23.8 µM) | 0.1 (≈ 0.191 µM) | 0.05 (≈ 0.0953 µM) | 1.56 (≈ 2.97 µM) | 3.13 (≈ 5.97 µM) | < 0.025 | > 3000 |
| CO/N=C(\C(=O)N[C@@H]1C(=O)N2C(C(=O)[O-])=C(C[N@+]3(C)CCC[C@H]3C)CS[C@H]12)c1nsc(N)n1 [Example 3, 7β-[2-(5-Amino-1,2,4-thiadiazol-3-yl)-(Z)-2-methoxyiminoacetamido]-3-[(1S,2R)-dimethylpyrrolidinio]methyl-3-cephem-4-carboxylate] | 1.56 (≈ 3.15 µM) | 12.5 (≈ 25.2 µM) | 0.2 (≈ 0.404 µM) | 0.2 (≈ 0.404 µM) | 1.56 (≈ 3.15 µM) | 6.25 (≈ 12.6 µM) | 0.2 (≈ 0.404 µM) | > 3000 |
| CO/N=C(\C(=O)N[C@@H]1C(=O)N2C(C(=O)[O-])=C(C[N@+]3(C)CCC[C@H]3C(N)=O)CS[C@H]12)c1csc(N)n1 [Control Compound, reference compound] | 6.25 (≈ 11.9 µM) | 50 (≈ 95.5 µM) | 0.2 (≈ 0.382 µM) | 0.2 (≈ 0.382 µM) | 1.56 (≈ 2.98 µM) | 12.5 (≈ 23.9 µM) | 0.1 (≈ 0.191 µM) |  |
| CO/N=C(\C(=O)N[C@@H]1C(=O)N2C(C(=O)[O-])=C(C[N@+]3(C)CCC[C@H]3CO)CS[C@H]12)c1csc(N)n1 [Example 5, 7β-[2-(2-Aminothiazol-4-yl)-(Z)-2-methoxyiminoacetoamido]-3-[(2S)-hydroxymethyl-(1S)-methylpyrrolidinio]methyl-3-cephem-4-carboxylate] | 3.13 (≈ 6.13 µM) | 25 (≈ 49 µM) | 0.1 (≈ 0.196 µM) | 0.05 (≈ 0.0979 µM) | 0.8 (≈ 1.57 µM) | 12.5 (≈ 24.5 µM) | 0.05 (≈ 0.0979 µM) | > 3000 |
| CO/N=C(\C(=O)N[C@@H]1C(=O)N2C(C(=O)[O-])=C(C[N@+]3(C)CCC[C@H]3CO)CS[C@H]12)c1nsc(N)n1 [Example 1-A, 7β-[2-(5-Amino-1,2,4-thiadiazol-3-yl)-(Z)-2-methoxyiminoacetamido]-3-[(2S)-hydroxymethyl-(1S)-methylpyrrolidinio]methyl-3-cephem-4-carboxylate] | 0.8 (≈ 1.56 µM) | 6.25 (≈ 12.2 µM) | 0.1 (≈ 0.195 µM) | 0.05 (≈ 0.0977 µM) | 1.56 (≈ 3.05 µM) | 6.25 (≈ 12.2 µM) | 0.025 (≈ 0.0489 µM) | > 3000 |
